According to PubChem BioAssay (NCI):
“And” between values parts separate entries of the source, which are not always exact repeats. Equal values may be shown once.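 Compound exposure: 48 hours, 5 concentrations, 96-well plates. Here, GI50 denotes the concentration required for 50% inhibition of growth. Definition used: TGI = concentration required for complete inhibition of growth.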

Columns and labels:
Test in all cases: inhibition of tumour cell growth, NCI panel, 48 h
[1] = tested on: BT-549 breast
[2] = tested on: HCT-15 colon
[3] = tested on: HL-60(TB) leukemia
[4] = tested on: HS 578T breast
[5] = tested on: M14 melanoma
[6] = tested on: PC-3 prostate
[7] = tested on: RPMI-8226 leukemia
[8] = tested on: SF-268 CNS
[9] = tested on: SNB-75 CNS
[10] = tested on: UACC-62 melanoma

Structure (SMILES)	TGI [1] [µM]	GI50 [2]	TGI [2]	GI50 [3]	TGI [3]	TGI [4] [µM]	GI50 [5]	TGI [5]	TGI [6] [µM]	GI50 [7]	TGI [7]	GI50 [8]	TGI [8]	GI50 [9]	TGI [9]	GI50 [10]	TGI [10]	GI50 [1] [µM]	GI50 [4] [µM]	GI50 [6] [µM]
O=C(Nc1ccc(Cl)cc1)NS(=O)(=O)c1ccc2c(c1)CCC2	> 100	16.3 µg/mL	> 90.2 µM and 41.8 µg/mL	24.1 µg/mL	> 78.2 µM and 65.8 µg/mL	13.1	20.2 µg/mL	97.5 µM and 45.1 µg/mL	47.3	34.2 µg/mL	85.7 µM and 150 µg/mL	15.7 µg/mL	> 100 µM and 35.7 µg/mL	28.1 µg/mL	> 100 µM and 64.7 µg/mL	15.9 µg/mL	> 84.7 µM and 36.7 µg/mL	–	–	–
O=C(CCCCCCc1nc2ccc(Br)cc2[nH]1)NO	32.3	1.69 µM	> 86.5 µM	0.461 µM	> 100 µM	3.21	0.34 µM	7.51 µM	> 100	0.411 µM	> 100 µM	0.67 µM	3.3 µM	0.419 µM	> 100 µM	0.189 µM	1.17 µM	1.69	0.331	0.796
COc1cc(-c2cc(-c3ccc(N(C)C)cc3)nc(N3CCC(O)CC3)c2C#N)cc(OC)c1OC	6.8	0.306 µM	1.86 µM	0.574 µM	4.13 µM	> 100	0.282 µM	1.3 µM	> 100	0.181 µM	1.74 µM	1.22 µM	5.31 µM	0.457 µM	10.1 µM	0.277 µM	0.741 µM	0.688	5.66	0.895
Cn1cc(-c2ccc3cc(-c4ccc(CC(=O)Nc5cc(C(C)(C)C)nn5C)cc4)cnc3c2)cn1	2.38	0.157 µM	> 100 µM	0.314 µM	–	> 100	0.144 µM	> 100 µM	> 100	0.254 µM	1.78 µM	0.294 µM	> 100 µM	0.0723 µM	> 100 µM	0.179 µM	> 100 µM	0.262	0.187	0.36
C1=C[C@@H]2c3ccc4cnccc4c3NC[C@@H]2C1	> 100	–	> 100 µM	–	> 100 µM	> 100	–	> 100 µM	> 100	–	> 100 µM	–	> 100 µM	–	> 100 µM	–	> 100 µM	–	–	–
Cc1ccc(CCC(=O)Nc2ncc(Cc3cc(Cl)ccc3Cl)s2)o1	2.72	0.0546 µM	> 100 µM	0.193 µM	0.589 µM	7.2	0.091 µM	3.97 µM	> 42.8	0.335 µM	61.1 µM	1.59 µM	> 54.6 µM	0.206 µM	2.16 µM	0.24 µM	> 100 µM	0.29	0.289	0.244
COc1cc[c]([Hg][Cl])cc1	9.16	1.08 µM	2.36 µM	3.08 µM	7.67 µM	47.2	1.68 µM	3.87 µM	31.8	3.39 µM	14.7 µM	3.27 µM	13.3 µM	1.69 µM	4.37 µM	4.09 µM	14.9 µM	2.97	1.96	16.2
CCN1CCC(C(=O)Nc2n[nH]c3nnc(-c4cccc(F)c4F)cc23)CC1	> 25	> 25 µM	> 25 µM	8.16 µM	19.5 µM	> 23.1	11.4 µM	> 25 µM	> 25	> 25 µM	> 25 µM	9.08 µM	> 25 µM	0.821 µM	> 19.3 µM	10.2 µM	> 25 µM	12.2	3.68	10.1
COc1ccc(/C=C2/SC(=Nc3c(C)nn(-c4ccccc4)c3N)NC2=O)cc1	22.4	3.64 µM	30.7 µM	2.9 µM	10.7 µM	6.57	3.72 µM	22.6 µM	77.7	3.9 µM	22.9 µM	4.84 µM	35.7 µM	3.43 µM	26.7 µM	3.78 µM	18.3 µM	4.94	2.17	4.35
COc1ccc(CCNc2nc3ccccc3c3[nH]c4ccccc4c23)cc1OC	26.3	2.86 µM	10.4 µM	1.65 µM	3.88 µM	6.17	1.87 µM	3.5 µM	14	2.18 µM	5.24 µM	4.77 µM	20.6 µM	14.3 µM	28.4 µM	13 µM	26.6 µM	12.1	2.54	3.66
CCN(CC)CCn1c(=N)n(CC(O)c2ccc(Cl)c(Cl)c2)c2ccccc21 (stereo unspecified)	28	4.02 µM	15.1 µM	5.12 µM	22.2 µM	21.2	2.07 µM	3.74 µM	19.3	2.72 µM	8.02 µM	11.9 µM	25.3 µM	10.6 µM	23.8 µM	1.94 µM	3.89 µM	14.5	4.25	5.21
COc1c(O)c2ccccc2c2cc(O)ccc12	7.04	–	20.1 µM	–	27 µM	> 58.9	–	8.57 µM	60.1	–	35.7 µM	–	28.8 µM	–	22.7 µM	–	6.1 µM	–	–	–
N#Cc1c(N)nn(C(=O)c2ccc(NC(=O)c3ccccn3)cc2)c1-c1ccc(Cl)cc1	> 100	5.04 µM	> 100 µM	> 100 µM	> 100 µM	> 100	5.52 µM	> 100 µM	> 100	> 100 µM	> 100 µM	3.55 µM	24.1 µM	1.86 µM	4.07 µM	9.45 µM	> 100 µM	4.86	2.89	3.58
Cc1ncc(C(=O)Nc2ccc(CN3CCN(C)CC3)c(C(F)(F)F)c2)cc1C#Cc1c(N)ncc2ccc(C#N)cc12	11.2	0.547 µM	8.86 µM	9.24 µM	> 50 µM	4.93	0.029 µM	0.659 µM	19.3	1.21 µM	9.18 µM	1.4 µM	9.7 µM	2.38 µM	8.93 µM	0.0362 µM	6.1 µM	2.71	0.572	4.49
CCOP1(=O)OCC2OC(n3cnc4c(N)ncnc43)C(O)C2O1 (stereo unspecified)	> 100	–	> 100 µM	–	> 100 µM	> 100	–	> 100 µM	> 100	–	> 100 µM	–	> 100 µM	–	> 100 µM	–	> 100 µM	–	–	–
NC(=O)C/C=C/CC(N)=O	> 100	–	> 100 µM	–	> 100 µM	> 100	–	> 100 µM	> 100	–	> 100 µM	–	> 100 µM	–	> 100 µM	–	> 100 µM	–	–	–
CCc1cc(C(N)=O)ccc1-n1nc(C(C)C)c2c(-n3cnc(-c4cnn(C)c4)c3)ccnc21	> 100	2.9 µM	> 100 µM	1.14 µM	> 100 µM	> 100	1.22 µM	> 100 µM	> 100	3.76 µM	> 100 µM	8.76 µM	> 100 µM	4.11 µM	> 100 µM	1.18 µM	> 35.4 µM	6.81	12	3.61
O=P(O)(O)OC1C(OP(=O)(O)O)C(OP(=O)(O)O)C(OP(=O)(O)O)C(OP(=O)(O)O)C1OP(=O)(O)O (stereo unspecified)	> 2000	> 2000 µM	> 2000 µM	> 2000 µM	> 2000 µM	> 2000	> 2000 µM	> 2000 µM	> 2000	> 2000 µM	> 2000 µM	> 2000 µM	> 2000 µM	> 1120 µM	> 2000 µM	> 2000 µM	> 2000 µM	> 1690	> 2000	> 2000
Cn1ccnc1CCc1ccc(F)cc1F	> 100	–	> 100 µM	–	> 100 µM	> 100	–	> 100 µM	> 100	–	> 100 µM	–	> 100 µM	–	> 100 µM	–	> 100 µM	–	–	–
COc1ccc(C2SC(N)=Nc3c2c(C)nn3C(=O)c2ccncc2)cc1 (stereo unspecified)	> 100	–	> 100 µM	–	> 100 µM	> 100	–	> 100 µM	> 100	–	> 100 µM	–	> 100 µM	–	> 100 µM	–	> 100 µM	–	–	–
CC1(CCCC2(C)CCNC2=O)OCCO1 (stereo unspecified)	> 10	–	> 10 µM	–	> 10 µM	> 10	–	> 10 µM	> 10	–	> 10 µM	–	> 10 µM	–	> 10 µM	–	> 10 µM	–	–	–
CC(=O)OCC1OC(n2cc(F)c(=O)[nH]c2=O)C(OC(C)=O)C1OC(C)=O (stereo unspecified)	> 100	–	> 100 µM	–	> 100 µM	> 100	–	> 100 µM	> 100	–	> 100 µM	–	> 100 µM	–	> 100 µM	–	> 100 µM	–	–	–
COc1cc([C@@H]2c3cc4c(cc3[C@H](OC3OC5COC(c6ccccc6)OC5C(O)C3O)[C@H]3COC(=O)[C@H]23)OCO4)cc(OC)c1OC (stereo partly specified)	1.99	0.281 µM	13.7 µM	0.342 µM	1.46 µM	1.67	0.351 µM	17.9 µM	22.5	0.263 µM	1 µM	0.428 µM	2.72 µM	0.403 µM	8.11 µM	0.515 µM	22.1 µM	0.333	0.303	0.432
[O-][n+]1onc2c3nn(-c4ccccc4)nc3ccc21	> 100	–	> 100 µM	–	8.68 µM	> 88.6	–	> 100 µM	> 100	–	53.3 µM	–	> 100 µM	–	> 100 µM	–	> 100 µM	–	–	–
O=C1CCC/C=C\C[C@H]2C=C(Cl)C(=O)/C2=C/C[C@H](CCCCC(F)(F)F)OC(=O)CCC/C=C\C[C@H]2C=C(Cl)C(=O)/C2=C/C[C@H](CCCCC(F)(F)F)O1	0.502	0.297 µM	1.32 µM	0.362 µM	3.6 µM	7.5	0.192 µM	0.614 µM	0.574	0.177 µM	0.528 µM	0.241 µM	1.38 µM	1.23 µM	6.24 µM	0.149 µM	0.352 µM	0.183	0.267	0.192
CC[C@]1(O)C[C@@H]2CN(Cc3c([nH]c4ccccc34)[C@@](C(=O)OC)(c3cc4c(cc3OC)N(C)[C@H]3[C@@](O)(C(=O)OC)[C@H](OC(C)=O)[C@]5(CC)[C@@H]6C[C@@H]6CN6CC[C@]43[C@@H]65)C2)C1	> 4.38	2.78 µM	> 4.38 µM	0.0159 µM	> 4.38 µM	> 1.33	0.135 µM	> 2.93 µM	> 4.38	0.0372 µM	> 4.38 µM	0.148 µM	> 4.38 µM	0.0393 µM	> 4.38 µM	0.0578 µM	> 4.38 µM	0.365	0.0858	0.0829
CC(C)Oc1cc(OCC(=O)O)cc(C(=O)N(CCC(N)=O)C(=O)Nc2ccc(C(=O)O)cc2OC(C)C)c1	> 100	> 100 µM	> 100 µM	> 100 µM	> 100 µM	> 100	> 100 µM	> 100 µM	> 100	> 100 µM	> 100 µM	> 100 µM	> 100 µM	> 100 µM	> 100 µM	> 100 µM	> 100 µM	> 100	> 100	> 100
